This note sets out measurements from patent US20240239861A1, “GLUCAGON-RECEPTOR SELECTIVE POLYPEPTIDES AND METHODS OF USE THEREOF” (i2O Therapeutics, Inc., priority 2016, published 2024).

One experiment deals with human GLP-1R (Homo sapiens, UniProt P43220). Description: Peptide-receptor mediated cAMP accumulation (LANCE Ultra cAMP) in CHO-K1 cells transfected with human GLP-1R. The experiment is classed as cell-based. To be noted: Table 7; GLP-1R; read-out: GLP-1R pEC50 (converted). (In general: cAMP levels reflect the balance of adenylyl cyclase and phosphodiesterase activity.)
Another experiment deals with human GCGR (Homo sapiens, UniProt P47871). Description: Peptide-receptor mediated cAMP accumulation (LANCE Ultra cAMP) in CHO-K1 cells transfected with human GCGR. The experiment is classed as cell-based. To be noted: read-out: GluR pEC50 (converted).

Molecules are shown by their SMILES. *1 amine or outer side, *2 acyl side, *3 side chain or, on linkers, in order; H or OH if unused. Where a SMILES comes first, the peptide text is derived from it. Side-chain parts run from the residue outwards. The star is where a group is joined. γGlu = O=C(O)[C@H](CCC(=O)[*:2])N[*:1]; Palmitoyl = CCCCCCCCCCCCCCCC(=O)* Where only a bound is given, the exact number is not on record here.

human GLP-1R, sequence (P43220 24-463): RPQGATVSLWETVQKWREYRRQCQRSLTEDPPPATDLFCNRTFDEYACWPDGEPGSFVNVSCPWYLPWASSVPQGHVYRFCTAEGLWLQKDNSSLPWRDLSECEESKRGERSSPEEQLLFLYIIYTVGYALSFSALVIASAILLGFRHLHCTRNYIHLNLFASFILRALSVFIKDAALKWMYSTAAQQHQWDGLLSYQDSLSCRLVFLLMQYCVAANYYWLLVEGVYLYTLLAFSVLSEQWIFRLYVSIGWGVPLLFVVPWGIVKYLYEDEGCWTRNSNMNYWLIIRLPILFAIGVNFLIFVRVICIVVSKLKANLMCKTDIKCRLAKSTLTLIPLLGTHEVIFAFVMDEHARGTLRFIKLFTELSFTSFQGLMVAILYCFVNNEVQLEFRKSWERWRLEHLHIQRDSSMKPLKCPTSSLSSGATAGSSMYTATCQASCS
human GCGR, sequence (P47871 26-477): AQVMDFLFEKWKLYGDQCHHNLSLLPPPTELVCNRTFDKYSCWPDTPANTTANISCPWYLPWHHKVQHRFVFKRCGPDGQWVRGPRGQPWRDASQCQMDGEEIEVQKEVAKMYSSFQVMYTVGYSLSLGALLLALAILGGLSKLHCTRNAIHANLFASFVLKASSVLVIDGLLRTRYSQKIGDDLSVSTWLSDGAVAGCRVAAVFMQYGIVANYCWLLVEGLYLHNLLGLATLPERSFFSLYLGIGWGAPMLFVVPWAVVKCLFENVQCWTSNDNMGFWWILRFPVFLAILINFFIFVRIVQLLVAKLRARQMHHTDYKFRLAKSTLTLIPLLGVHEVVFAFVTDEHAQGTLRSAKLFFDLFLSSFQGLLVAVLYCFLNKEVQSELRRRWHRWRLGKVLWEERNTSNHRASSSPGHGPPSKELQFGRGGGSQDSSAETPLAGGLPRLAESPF

Regarding `CCCCCCCCCCCCCCCC(=O)N[C@@H](CCC(=O)NCCCC[C@H](NC(=O)[C@H](CC(=O)O)NC(=O)[C@H](CC(C)C)NC(=O)[C@H](Cc1ccc(O)cc1)NC(=O)[C@H](CCCCN)NC(=O)[C@H](CO)NC(=O)[C@H](Cc1ccc(O)cc1)NC(=O)[C@H](CC(=O)O)NC(=O)[C@H](CO)NC(=O)[C@@H](NC(=O)[C@H](Cc1ccccc1)NC(=O)[C@@H](NC(=O)CNC(=O)[C@H](CCC(N)=O)NC(=O)[C@H](CO)NC(=O)[C@@H](N)Cc1ccc(O)cc1)[C@@H](C)O)[C@@H](C)O)C(=O)N[C@@H](C)C(=O)N[C@@H](CCCNC(=N)N)C(=O)N[C@@H](C)C(=O)N[C@@H](CCC(N)=O)C(=O)N[C@@H](CCC(=O)O)C(=O)N[C@@H](Cc1ccccc1)C(=O)N[C@H](C(=O)N[C@@H](CCCCN)C(=O)N[C@@H](Cc1c[nH]c2ccccc12)C(=O)N[C@@H](CC(C)C)C(=O)N[C@@H](CCC(=O)O)C(=O)N[C@@H](CC(=O)O)C(=O)N[C@@H](CCC(=O)O)C(=O)N1CCC[C@H]1C(=O)N[C@@H](CCCCN)C(=O)N[C@@H](CO)C(=O)N[C@@H](CCCCN)C(=O)N[C@@H](CO)C(=O)N1CCC[C@H]1C(=O)N1CCC[C@H]1C(=O)N1CCC[C@H]1C(=O)N[C@@H](CO)C(N)=O)C(C)C)C(=O)O` [Compound B35] (H-YSQGTFTSDYSKYLDK([γGlu-Palmitoyl])ARAQEFVKWLEDEPKSKSPPPS-NH2), the EC50 was 251 nM at human GLP-1R and 0.00794 nM at human GCGR.
`CCCCCCCCCCCCCCCC(=O)N[C@@H](CCC(=O)NCCCC[C@H](NC(=O)[C@H](CC(=O)O)NC(=O)[C@H](CO)NC(=O)[C@@H](NC(=O)[C@H](Cc1ccccc1)NC(=O)[C@@H](NC(=O)CNC(=O)[C@H](CCC(N)=O)NC(=O)[C@H](CO)NC(=O)[C@@H](N)Cc1ccc(O)cc1)[C@@H](C)O)[C@@H](C)O)C(=O)N[C@@H](CO)C(=O)N[C@@H](CCCCN)C(=O)N[C@@H](Cc1ccc(O)cc1)C(=O)N[C@@H](CC(C)C)C(=O)N[C@@H](CC(=O)O)C(=O)N[C@@H](C)C(=O)N[C@@H](C)C(=O)N[C@@H](CCCNC(=N)N)C(=O)N[C@@H](C)C(=O)N[C@@H](CCC(N)=O)C(=O)N[C@@H](CCC(=O)O)C(=O)N[C@@H](Cc1ccccc1)C(=O)N[C@H](C(=O)N[C@@H](CCCCN)C(=O)N[C@@H](Cc1c[nH]c2ccccc12)C(=O)N[C@@H](CC(C)C)C(=O)N[C@@H](CCC(=O)O)C(=O)N[C@@H](CC(=O)O)C(=O)N[C@@H](CCC(=O)O)C(=O)N1CCC[C@H]1C(=O)N[C@@H](CCCCN)C(=O)N[C@@H](CO)C(=O)N[C@@H](CCCCN)C(=O)N[C@@H](CO)C(=O)N1CCC[C@H]1C(=O)N1CCC[C@H]1C(=O)N1CCC[C@H]1C(=O)N[C@@H](CO)C(N)=O)C(C)C)C(=O)O` [Compound B36] (H-YSQGTFTSDK([γGlu-Palmitoyl])SKYLDAARAQEFVKWLEDEPKSKSPPPS-NH2): the results for the EC50 on human GLP-1R and on human GCGR were 7.94 nM and 0.00316 nM, respectively.
`CCCCCCCCCCCCCCCC(=O)N[C@@H](CCC(=O)NCCCC[C@H](NC(=O)[C@@H](NC(=O)[C@H](Cc1ccccc1)NC(=O)[C@H](CCC(=O)O)NC(=O)[C@H](CCC(N)=O)NC(=O)[C@H](C)NC(=O)[C@H](CCCNC(=N)N)NC(=O)[C@H](C)NC(=O)[C@H](CO)NC(=O)[C@H](CC(=O)O)NC(=O)[C@H](CC(C)C)NC(=O)[C@H](Cc1ccc(O)cc1)NC(=O)[C@H](CCCCN)NC(=O)[C@H](CO)NC(=O)[C@H](Cc1ccc(O)cc1)NC(=O)[C@H](CC(=O)O)NC(=O)[C@H](CO)NC(=O)[C@@H](NC(=O)[C@H](Cc1ccccc1)NC(=O)[C@@H](NC(=O)CNC(=O)[C@H](Cc1c[nH]cn1)NC(=O)[C@H](CO)NC(=O)[C@@H](N)Cc1ccc(O)cc1)[C@@H](C)O)[C@@H](C)O)C(C)C)C(=O)N[C@@H](Cc1c[nH]c2ccccc12)C(=O)N[C@@H](CC(C)C)C(=O)N[C@@H](CCC(=O)O)C(=O)N[C@@H](CC(=O)O)C(=O)N[C@@H](CCC(=O)O)C(=O)N1CCC[C@H]1C(=O)N[C@@H](CO)C(=O)N[C@@H](CO)C(=O)NCC(=O)N[C@@H](C)C(=O)N1CCC[C@H]1C(=O)N1CCC[C@H]1C(=O)N1CCC[C@H]1C(=O)N[C@@H](CO)C(N)=O)C(=O)O` [Compound B42] (H-YSHGTFTSDYSKYLDSARAQEFVK([γGlu-Palmitoyl])WLEDEPSSGAPPPS-NH2): the EC50 is more than 1000 nM on human GLP-1R and 0.2 nM at human GCGR.
Take `CCCCCCCCCCCCCCCC(=O)N[C@@H](CCC(=O)NCCCC[C@H](NC(=O)[C@H](CC(=O)O)NC(=O)[C@H](CC(C)C)NC(=O)[C@H](Cc1ccc(O)cc1)NC(=O)[C@H](CCCCN)NC(=O)[C@H](CO)NC(=O)[C@H](Cc1ccc(O)cc1)NC(=O)[C@H](CC(=O)O)NC(=O)[C@H](CO)NC(=O)[C@@H](NC(=O)[C@H](Cc1ccccc1)NC(=O)[C@@H](NC(=O)CNC(=O)[C@H](Cc1c[nH]cn1)NC(=O)[C@H](CO)NC(=O)[C@@H](N)Cc1ccc(O)cc1)[C@@H](C)O)[C@@H](C)O)C(=O)N[C@@H](C)C(=O)N[C@@H](CCCNC(=N)N)C(=O)N[C@@H](C)C(=O)N[C@@H](CCC(N)=O)C(=O)N[C@@H](CCC(=O)O)C(=O)N[C@@H](Cc1ccccc1)C(=O)N[C@H](C(=O)N[C@@H](CCCCN)C(=O)N[C@@H](Cc1c[nH]c2ccccc12)C(=O)N[C@@H](CC(C)C)C(=O)N[C@@H](CCC(=O)O)C(=O)N[C@@H](CC(=O)O)C(=O)N[C@@H](CCC(=O)O)C(=O)N1CCC[C@H]1C(=O)N[C@@H](CO)C(=O)N[C@@H](CO)C(=O)NCC(=O)N[C@@H](C)C(=O)N1CCC[C@H]1C(=O)N1CCC[C@H]1C(=O)N1CCC[C@H]1C(=O)N[C@@H](CO)C(N)=O)C(C)C)C(=O)O` [Compound B43]: the EC50 on human GLP-1R is more than 1000 nM; at human GCGR, 0.00794 nM.
With `CCCCCCCCCCCCCCCC(=O)N[C@@H](CCC(=O)NCCCC[C@H](NC(=O)[C@H](CC(=O)O)NC(=O)[C@H](CO)NC(=O)[C@@H](NC(=O)[C@H](Cc1ccccc1)NC(=O)[C@@H](NC(=O)CNC(=O)[C@H](Cc1c[nH]cn1)NC(=O)[C@H](CO)NC(=O)[C@@H](N)Cc1ccc(O)cc1)[C@@H](C)O)[C@@H](C)O)C(=O)N[C@@H](CO)C(=O)N[C@@H](CCCCN)C(=O)N[C@@H](Cc1ccc(O)cc1)C(=O)N[C@@H](CC(C)C)C(=O)N[C@@H](CC(=O)O)C(=O)N[C@@H](CO)C(=O)N[C@@H](C)C(=O)N[C@@H](CCCNC(=N)N)C(=O)N[C@@H](C)C(=O)N[C@@H](CCC(N)=O)C(=O)N[C@@H](CCC(=O)O)C(=O)N[C@@H](Cc1ccccc1)C(=O)N[C@H](C(=O)N[C@@H](CCCCN)C(=O)N[C@@H](Cc1c[nH]c2ccccc12)C(=O)N[C@@H](CC(C)C)C(=O)N[C@@H](CCC(=O)O)C(=O)N[C@@H](CC(=O)O)C(=O)N[C@@H](CCC(=O)O)C(=O)N1CCC[C@H]1C(=O)N[C@@H](CO)C(=O)N[C@@H](CO)C(=O)NCC(=O)N[C@@H](C)C(=O)N1CCC[C@H]1C(=O)N1CCC[C@H]1C(=O)N1CCC[C@H]1C(=O)N[C@@H](CO)C(N)=O)C(C)C)C(=O)O` [Compound B44] (H-YSHGTFTSDK([γGlu-Palmitoyl])SKYLDSARAQEFVKWLEDEPSSGAPPPS-NH2), the EC50 is 63.1 nM on human GLP-1R and 0.00126 nM at human GCGR.
